Experiments:
[1] = test system: aneurysmal RASMC cultures; assay: Exogenous DOX on aneurysmal RASMC cultures (previous studies by the inventors); type: cell-based, rat
[2] = equivalent to standard oral doses; mice and human patients; Ding et al. 2005; cited from earlier work

Question: For `C[C@H]1c2cccc(O)c2C(=O)C2=C(O)[C@]3(O)C(=O)C(C(N)=O)=C(O)[C@@H](N(C)C)[C@@H]3[C@@H](O)[C@@H]21` [DOX, doxycycline], which “exogenously delivered dose observed to inhibit proliferation and elastic matrix synthesis by EaRASMCs” value ([1]; observed by the inventors) is on record?
Answer: The value was 5.0 µg/mL.

Question: What about the “exogenous DOX dosage that limited the viability of aneurysmal RASMC cultures” value ([1]; previous studies by the inventors) of the same molecule?
Answer: Its value is 5.0 µg/mL.

Question: And the “DOX concentration measured within AAA tissues” value [2]?
Answer: The value was about 50 ng/mL.
